From publication PMC8187944, “Discovery of Potent EGFR Inhibitors With 6-Arylureido-4-anilinoquinazoline Derivatives” (Frontiers in Pharmacology, 2021)

What was measured:
Experiment in all cases: Kinase spectrum assay (ADP-Glo)
Conditions in all cases: remaining enzyme activity at 1 μm compound
Abl = Abl (Homo sapiens, UniProt P00519)
Experimental: (§1) The above-prepared systems were sealed and incubated at room temperature for 2 h, and 5 μl of ADP-GLO was added to terminate the kinase reaction. Then, the culture plate was sealed and incubated in a thermostatic oscillator for 40 min to fully consume the remaining ATP. The luciferase/luciferin reaction was adopted to determine the newly generated ATP level.

FAK = FAK (Homo sapiens, UniProt Q05397)
Experimental: as §1

FGFR2 = FGFR2 (Homo sapiens, UniProt P21802)
Experimental: as §1

SRC = SRC (Homo sapiens, UniProt P12931)
Experimental: (§2) The ADP-Glo™ kinase detection kit is a luminescence kinase detection approach that detects the amount of ADP produced by the kinase reaction. After ADP is converted into ATP, ATP can be used as the substrate of the luciferase-catalyzed reaction to generate an optical signal, which is positively correlated with kinase activity. […] The above-prepared systems were sealed and incubated at room temperature for 2 h, and 5 μl of ADP-GLO was added to terminate the kinase reaction. Then, the culture plate was sealed and incubated in a thermostatic oscillator for 40 min to fully consume the remaining ATP. The luciferase/luciferin reaction was adopted to determine the newly generated ATP level.

FLT3 = FLT3 (Homo sapiens, UniProt P36888)
Experimental: as §2

JAK3 = JAK3 (Homo sapiens, UniProt P52333)
Chain of JAK3 (P52333 whole entry): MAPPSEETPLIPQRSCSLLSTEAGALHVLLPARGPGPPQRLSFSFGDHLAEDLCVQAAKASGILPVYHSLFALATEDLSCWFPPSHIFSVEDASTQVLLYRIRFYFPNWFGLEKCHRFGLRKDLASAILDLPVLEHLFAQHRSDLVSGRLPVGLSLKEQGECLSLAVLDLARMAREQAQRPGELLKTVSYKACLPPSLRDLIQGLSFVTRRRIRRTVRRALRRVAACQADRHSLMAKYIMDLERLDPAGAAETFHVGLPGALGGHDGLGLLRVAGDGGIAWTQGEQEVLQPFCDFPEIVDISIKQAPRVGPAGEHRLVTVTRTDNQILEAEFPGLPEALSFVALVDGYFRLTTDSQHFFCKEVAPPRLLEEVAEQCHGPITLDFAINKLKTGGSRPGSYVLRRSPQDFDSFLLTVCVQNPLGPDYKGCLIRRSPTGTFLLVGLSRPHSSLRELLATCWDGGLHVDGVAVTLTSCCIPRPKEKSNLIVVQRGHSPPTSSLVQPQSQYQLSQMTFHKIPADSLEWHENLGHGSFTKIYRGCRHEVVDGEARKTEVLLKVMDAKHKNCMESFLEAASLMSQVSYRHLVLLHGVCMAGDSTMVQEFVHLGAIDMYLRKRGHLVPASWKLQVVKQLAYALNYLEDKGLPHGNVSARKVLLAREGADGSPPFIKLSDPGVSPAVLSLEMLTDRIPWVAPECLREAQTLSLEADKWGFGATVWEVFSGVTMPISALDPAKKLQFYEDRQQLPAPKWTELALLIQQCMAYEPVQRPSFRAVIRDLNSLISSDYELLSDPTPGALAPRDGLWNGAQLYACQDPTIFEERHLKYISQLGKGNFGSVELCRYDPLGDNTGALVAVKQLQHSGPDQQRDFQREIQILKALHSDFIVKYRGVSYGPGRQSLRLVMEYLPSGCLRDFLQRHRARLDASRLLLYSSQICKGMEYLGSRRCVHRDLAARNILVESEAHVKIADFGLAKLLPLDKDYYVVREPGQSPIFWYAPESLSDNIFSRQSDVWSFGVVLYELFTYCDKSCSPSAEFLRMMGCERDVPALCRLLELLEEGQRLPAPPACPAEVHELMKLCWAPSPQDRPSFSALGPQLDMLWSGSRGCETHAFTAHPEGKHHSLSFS
Experimental: as §2

ASK1 = ASK1 (Homo sapiens, UniProt Q99683)
Experimental: as §2

MELK = MELK (Homo sapiens, UniProt Q14680)
Chain of MELK (Q14680 whole entry): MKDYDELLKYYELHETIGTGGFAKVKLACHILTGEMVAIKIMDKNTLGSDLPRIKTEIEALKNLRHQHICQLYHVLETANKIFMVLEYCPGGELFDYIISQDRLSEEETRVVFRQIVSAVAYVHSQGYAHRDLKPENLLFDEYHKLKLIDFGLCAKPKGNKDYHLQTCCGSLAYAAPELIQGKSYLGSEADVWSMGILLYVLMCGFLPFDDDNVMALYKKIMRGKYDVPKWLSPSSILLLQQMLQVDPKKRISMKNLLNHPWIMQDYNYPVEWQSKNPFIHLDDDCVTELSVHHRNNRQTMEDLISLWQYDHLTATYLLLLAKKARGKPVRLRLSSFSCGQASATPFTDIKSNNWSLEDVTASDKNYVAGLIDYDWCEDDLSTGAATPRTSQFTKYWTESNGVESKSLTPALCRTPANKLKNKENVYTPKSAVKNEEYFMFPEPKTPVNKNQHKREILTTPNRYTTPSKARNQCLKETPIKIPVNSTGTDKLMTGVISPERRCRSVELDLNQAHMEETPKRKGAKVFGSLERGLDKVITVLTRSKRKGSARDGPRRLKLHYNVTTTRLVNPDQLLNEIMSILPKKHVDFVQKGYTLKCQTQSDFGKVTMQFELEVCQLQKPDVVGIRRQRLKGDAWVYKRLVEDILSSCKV
Experimental: as §2

CDK2 = CDK2 (Homo sapiens, UniProt P24941)
Experimental: as §2

IRAK4 = IRAK4 (Homo sapiens, UniProt Q9NWZ3)
Chain of IRAK4 (Q9NWZ3 whole entry): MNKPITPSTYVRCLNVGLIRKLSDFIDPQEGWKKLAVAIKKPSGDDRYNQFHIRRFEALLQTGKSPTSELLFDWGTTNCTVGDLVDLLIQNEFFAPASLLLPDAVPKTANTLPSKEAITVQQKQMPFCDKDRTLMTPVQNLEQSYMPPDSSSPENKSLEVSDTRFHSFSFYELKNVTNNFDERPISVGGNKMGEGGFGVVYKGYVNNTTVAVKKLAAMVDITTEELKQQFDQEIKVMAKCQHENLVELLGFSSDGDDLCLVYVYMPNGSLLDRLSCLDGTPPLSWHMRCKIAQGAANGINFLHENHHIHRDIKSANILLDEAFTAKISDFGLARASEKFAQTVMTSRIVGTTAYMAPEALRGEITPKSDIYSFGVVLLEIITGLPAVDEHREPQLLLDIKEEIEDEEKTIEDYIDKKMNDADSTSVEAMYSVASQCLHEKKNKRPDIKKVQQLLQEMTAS
Experimental: as §2

Chain of FGFR2 (P21802 22-821): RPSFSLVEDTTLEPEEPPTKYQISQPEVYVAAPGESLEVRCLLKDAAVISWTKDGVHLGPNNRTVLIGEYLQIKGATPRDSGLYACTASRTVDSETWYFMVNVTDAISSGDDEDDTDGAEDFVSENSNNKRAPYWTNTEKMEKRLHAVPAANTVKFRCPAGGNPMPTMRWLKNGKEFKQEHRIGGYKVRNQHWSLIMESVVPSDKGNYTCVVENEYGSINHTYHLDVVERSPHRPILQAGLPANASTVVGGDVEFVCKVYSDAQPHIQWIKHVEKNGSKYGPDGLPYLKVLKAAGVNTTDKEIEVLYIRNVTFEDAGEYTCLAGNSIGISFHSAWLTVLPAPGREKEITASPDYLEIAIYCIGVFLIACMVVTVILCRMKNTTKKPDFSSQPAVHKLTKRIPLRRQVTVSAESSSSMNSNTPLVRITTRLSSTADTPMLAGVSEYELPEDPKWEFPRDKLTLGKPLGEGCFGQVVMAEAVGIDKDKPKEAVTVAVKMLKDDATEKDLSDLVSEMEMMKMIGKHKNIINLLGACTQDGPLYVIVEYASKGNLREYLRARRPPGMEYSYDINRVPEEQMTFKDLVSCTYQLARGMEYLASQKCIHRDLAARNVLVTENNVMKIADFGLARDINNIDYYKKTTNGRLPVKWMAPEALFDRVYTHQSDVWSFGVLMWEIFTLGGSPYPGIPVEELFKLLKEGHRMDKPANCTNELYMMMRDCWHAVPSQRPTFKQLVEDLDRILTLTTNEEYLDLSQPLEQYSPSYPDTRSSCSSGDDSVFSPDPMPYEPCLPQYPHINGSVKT
Chain of Abl (P00519 whole entry): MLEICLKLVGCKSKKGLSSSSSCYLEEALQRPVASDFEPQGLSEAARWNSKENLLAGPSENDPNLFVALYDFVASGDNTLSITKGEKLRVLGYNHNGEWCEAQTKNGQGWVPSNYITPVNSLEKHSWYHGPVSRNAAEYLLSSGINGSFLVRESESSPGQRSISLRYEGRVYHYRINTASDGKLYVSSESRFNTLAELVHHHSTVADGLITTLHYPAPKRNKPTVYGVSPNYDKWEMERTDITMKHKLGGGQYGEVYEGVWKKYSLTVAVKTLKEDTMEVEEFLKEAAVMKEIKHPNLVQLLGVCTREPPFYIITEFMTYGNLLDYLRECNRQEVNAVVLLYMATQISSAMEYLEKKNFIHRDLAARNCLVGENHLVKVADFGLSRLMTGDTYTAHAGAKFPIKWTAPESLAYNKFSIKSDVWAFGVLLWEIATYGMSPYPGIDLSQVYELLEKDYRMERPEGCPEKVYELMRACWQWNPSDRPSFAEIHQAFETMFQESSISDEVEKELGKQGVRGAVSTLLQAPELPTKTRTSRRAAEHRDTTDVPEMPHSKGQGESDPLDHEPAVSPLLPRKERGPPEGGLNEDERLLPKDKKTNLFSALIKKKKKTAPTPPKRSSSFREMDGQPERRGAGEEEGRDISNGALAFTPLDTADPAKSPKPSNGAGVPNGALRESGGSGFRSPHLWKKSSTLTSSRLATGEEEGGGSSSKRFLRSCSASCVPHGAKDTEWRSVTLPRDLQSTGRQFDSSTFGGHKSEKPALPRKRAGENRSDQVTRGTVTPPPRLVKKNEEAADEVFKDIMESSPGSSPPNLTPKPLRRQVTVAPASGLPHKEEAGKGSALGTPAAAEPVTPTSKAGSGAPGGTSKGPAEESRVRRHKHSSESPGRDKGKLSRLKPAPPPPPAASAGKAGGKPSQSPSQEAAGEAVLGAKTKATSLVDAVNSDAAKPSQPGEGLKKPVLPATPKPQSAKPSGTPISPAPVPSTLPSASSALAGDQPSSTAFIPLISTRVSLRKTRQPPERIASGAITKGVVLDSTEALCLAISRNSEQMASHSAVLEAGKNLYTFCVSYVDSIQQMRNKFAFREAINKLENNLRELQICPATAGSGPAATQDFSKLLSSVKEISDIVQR
Chain of SRC (P12931 whole entry): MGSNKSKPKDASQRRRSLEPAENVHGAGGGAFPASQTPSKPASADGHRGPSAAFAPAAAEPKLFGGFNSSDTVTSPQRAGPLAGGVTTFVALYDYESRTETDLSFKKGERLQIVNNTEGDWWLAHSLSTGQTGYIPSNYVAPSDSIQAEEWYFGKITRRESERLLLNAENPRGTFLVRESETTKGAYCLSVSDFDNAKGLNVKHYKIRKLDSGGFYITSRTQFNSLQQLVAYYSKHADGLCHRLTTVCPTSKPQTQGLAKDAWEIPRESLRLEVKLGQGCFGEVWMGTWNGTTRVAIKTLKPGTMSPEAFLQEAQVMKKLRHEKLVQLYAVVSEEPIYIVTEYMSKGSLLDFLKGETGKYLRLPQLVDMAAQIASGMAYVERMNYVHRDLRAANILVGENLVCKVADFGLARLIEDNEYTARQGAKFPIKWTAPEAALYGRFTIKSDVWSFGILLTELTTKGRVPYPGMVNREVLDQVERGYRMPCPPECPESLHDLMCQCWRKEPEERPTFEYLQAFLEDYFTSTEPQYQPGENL

O=C(Nc1ccc(Cl)c(C(F)(F)F)c1)Nc1ccc2ncnc(Nc3cccc(Br)c3)c2c1 [Compound 7i]
Enzyme activity % Abl (Abl): 94.51 ± 0.41%
Enzyme activity % FAK (FAK): 81.70 ± 2.75%
Enzyme activity % FGFR2 (FGFR2): 91.07 ± 8.02%
Enzyme activity % SRC (SRC): 72.10 ± 1.83%
Enzyme activity % FLT3 (FLT3): 92.18 ± 15.36%
Enzyme activity % JAK3 (JAK3): 82.49 ± 1.82%
Enzyme activity % ASK1 (ASK1): 62.27 ± 3.02%
Enzyme activity % MELK (MELK): 78.83 ± 6.55%
Enzyme activity % CDK2 (CDK2): 77.40 ± 6.84%
Enzyme activity % IRAK4 (IRAK4): 86.33 ± 0.56%
